Key:
[1] = test system: Italian ryegrass; test: Test A postemergence; type: in vivo, Lolium multiflorum; conditions: 0 to 100 scale, 0 no effect, 100 complete control
Procedure, shortened: (§1)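 Pre- and postemergence greenhouse screen. Soil: loam + sand. Spray carrier: solvent mixture, non-phytotoxic, with surfactant. Post timing at 1–2 leaves, height 2–10 cm. Readout: visual injury on a 0–100 scale roughly 10 days after application, untreated plants as reference.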

[2] = test system: kochia; test: Test A postemergence; type: in vivo, Kochia scoparia; conditions: 0 to 100 scale, 0 no effect, 100 complete control
Procedure, shortened: as §1

[3] = test system: large (Lg) crabgrass; test: Test C preemergence; type: in vivo, Digitaria sanguinalis; conditions: Digitaria sanguinalis, pre-emergence
Procedure, shortened: (§2)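 Greenhouse herbicide screen. Pre: seeded loam/sand, sprayed at planting. Post: 1–4 leaf plants (2–18 cm) in peat-based mix. Formulation: solvent mixture + surfactant, non-phytotoxic. Readout: visual % control vs untreated, 13–15 d; dash = not tested.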

[4] = test system: pigweed; test: Test C preemergence; type: in vivo, Amaranthus retroflexus; conditions: Amaranthus retroflexus, pre-emergence
Procedure, shortened: as §2

[5] = test system: blackgrass; test: Test A postemergence; type: in vivo, Alopecurus myosuroides; conditions: 0 to 100 scale, 0 no effect, 100 complete control
Procedure, shortened: as §1

[6] = test system: giant foxtail; test: Test C preemergence; type: in vivo, Setaria faberii; conditions: Setaria faberi, pre-emergence
Procedure, shortened: as §2

[7] = test system: morningglory; test: Test C preemergence; type: in vivo, Ipomoea coccinea; conditions: Ipomoea, pre-emergence
Procedure, shortened: as §2

[8] = test system: velvetleaf; test: Test C preemergence; type: in vivo, Abutilon theophrasti; conditions: Abutilon theophrasti, pre-emergence
Procedure, shortened: as §2

[9] = test system: oilseed rape; test: Test C preemergence; type: in vivo, Brassica napus; conditions: Brassica napus, pre-emergence
Procedure, shortened: as §2

[10] = test system: yellow nutsedge; test: Test C preemergence; type: in vivo, Cyperus esculentus; conditions: Cyperus, pre-emergence
Procedure, shortened: as §2

[11] = test system: soybean; test: Test C preemergence; type: in vivo, Glycine max; conditions: Glycine max, pre-emergence
Procedure, shortened: as §2

[12] = test system: galium; test: Test A postemergence; type: in vivo, Galium aparine; conditions: 0 to 100 scale, 0 no effect, 100 complete control
Procedure, shortened: as §1

[13] = test system: waterhemp; test: Test C preemergence; type: in vivo, Amaranthus rudis; conditions: Amaranthus tuberculatus, pre-emergence
Procedure, shortened: as §2

[14] = test system: barnyardgrass; test: Test C preemergence; type: in vivo, Echinochloa crus-galli; conditions: Echinochloa crus-galli, pre-emergence
Procedure, shortened: as §2

[15] = test system: ragweed; test: Test A postemergence; type: in vivo, Ambrosia elatior; conditions: 0 to 100 scale, 0 no effect, 100 complete control
Procedure, shortened: as §1

[16] = test system: johnsongrass; test: Test C preemergence; type: in vivo, Sorghum halepense; conditions: Sorghum halepense, pre-emergence
Procedure, shortened: as §2

[17] = test system: lambsquarters; test: Test C preemergence; type: in vivo, Chenopodium album; conditions: Chenopodium album, pre-emergence
Procedure, shortened: as §2

[18] = test system: Italian ryegrass; test: Test C preemergence; type: in vivo, Lolium multiflorum; conditions: Lolium multiflorum, pre-emergence
Procedure, shortened: as §2

[19] = test system: blackgrass; test: Test C preemergence; type: in vivo, Alopecurus myosuroides; conditions: Alopecurus myosuroides, pre-emergence
Procedure, shortened: as §2

Question: How did the “Plant response rating, Ryegrass, Italian” value ([1]; 31 g ai/ha) turn out when N#Cc1cccc(Oc2ncc(Cl)cn2)c1-n1cc(C(F)F)cn1 [Compound 253, 3-(5-chloropyrimidin-2-yl)oxy-2-[4-(difluoromethyl)-1H-pyrazol-1-yl]benzonitrile] was run?
Answer: 0

Question: And the “Plant response rating, Ryegrass, Italian” value ([1]; 125 g ai/ha)?
Answer: 50

Question: What about the “Plant response rating, Kochia” value ([2]; 31 g ai/ha) of the same compound?
Answer: 100

Question: And the “Plant response rating, Kochia” value ([2]; 125 g ai/ha)?
Answer: 100

Question: And the pest or weed control at 16 g/ha ([3]; 16 g ai/ha, preemergence, scale 0 to 100 (0 no effect, 100 complete control), read-out: Crabgrass, Large plant response rating)?
Answer: 85%

Question: What about the pest or weed control at 125 g/ha ([3]; 125 g ai/ha, preemergence, scale 0 (no effect) to 100 (complete control), read-out: Crabgrass, Large plant response rating) of the same compound?
Answer: 100%

Question: And the pest or weed control at 62 g/ha ([3]; Preemergence, 62 g ai/ha, scale 0 to 100, 0 no effect, 100 complete control, read-out: Plant response rating, Crabgrass, Large)?
Answer: 100%

Question: What about the pest or weed control at 16 g/ha ([4]; 16 g ai/ha, preemergence, scale 0 to 100 (0 no effect, 100 complete control), read-out: Pigweed plant response rating) of the same compound?
Answer: 100%

Question: What about the pest or weed control at 125 g/ha ([4]; 125 g ai/ha, preemergence, scale 0 (no effect) to 100 (complete control), read-out: Pigweed plant response rating) of the same compound?
Answer: 100%

Question: And the pest or weed control at 62 g/ha ([4]; Preemergence, 62 g ai/ha, scale 0 to 100, 0 no effect, 100 complete control, read-out: Plant response rating, Pigweed)?
Answer: 100%

Question: And the “Plant response rating, Blackgrass” value ([5]; 31 g ai/ha)?
Answer: 20

Question: And the “Plant response rating, Blackgrass” value ([5]; 125 g ai/ha)?
Answer: 80

Question: And the pest or weed control at 16 g/ha ([6]; 16 g ai/ha, preemergence, scale 0 to 100 (0 no effect, 100 complete control), read-out: Foxtail, Giant plant response rating)?
Answer: 35%

Question: What about the pest or weed control at 125 g/ha ([6]; 125 g ai/ha, preemergence, scale 0 (no effect) to 100 (complete control), read-out: Foxtail, Giant plant response rating) of the same compound?
Answer: 100%

Question: What about the pest or weed control at 62 g/ha ([6]; Preemergence, 62 g ai/ha, scale 0 to 100, 0 no effect, 100 complete control, read-out: Plant response rating, Foxtail, Giant) of the same compound?
Answer: 98%

Question: What about the pest or weed control at 16 g/ha ([7]; 16 g ai/ha, preemergence, scale 0 to 100 (0 no effect, 100 complete control), read-out: Morningglory plant response rating) of the same compound?
Answer: 40%

Question: And the pest or weed control at 125 g/ha ([7]; 125 g ai/ha, preemergence, scale 0 (no effect) to 100 (complete control), read-out: Morningglory plant response rating)?
Answer: 100%

Question: And the pest or weed control at 62 g/ha ([7]; Preemergence, 62 g ai/ha, scale 0 to 100, 0 no effect, 100 complete control, read-out: Plant response rating, Morningglory)?
Answer: 98%

Question: And the pest or weed control at 16 g/ha ([8]; 16 g ai/ha, preemergence, scale 0 to 100 (0 no effect, 100 complete control), read-out: Velvetleaf plant response rating)?
Answer: 55%

Question: What about the pest or weed control at 125 g/ha ([8]; 125 g ai/ha, preemergence, scale 0 (no effect) to 100 (complete control), read-out: Velvetleaf plant response rating) of the same compound?
Answer: 100%

Question: And the pest or weed control at 62 g/ha ([8]; Preemergence, 62 g ai/ha, scale 0 to 100, 0 no effect, 100 complete control, read-out: Plant response rating, Velvetleaf)?
Answer: 100%

Question: And the plant injury at 16 g/ha ([9]; 16 g ai/ha, preemergence, scale 0 to 100 (0 no effect, 100 complete control), read-out: Oilseed Rape plant response rating)?
Answer: 75%

Question: And the plant injury at 125 g/ha ([9]; 125 g ai/ha, preemergence, scale 0 (no effect) to 100 (complete control), read-out: Oilseed Rape plant response rating)?
Answer: 100%

Question: And the plant injury at 62 g/ha ([9]; Preemergence, 62 g ai/ha, scale 0 to 100, 0 no effect, 100 complete control, read-out: Plant response rating, Oilseed Rape)?
Answer: 100%

Question: And the pest or weed control at 16 g/ha ([10]; 16 g ai/ha, preemergence, scale 0 to 100 (0 no effect, 100 complete control), read-out: Nutsedge, Yellow plant response rating)?
Answer: 0%

Question: And the pest or weed control at 125 g/ha ([10]; 125 g ai/ha, preemergence, scale 0 (no effect) to 100 (complete control), read-out: Nutsedge, Yellow plant response rating)?
Answer: 65%

Question: And the pest or weed control at 62 g/ha ([10]; Preemergence, 62 g ai/ha, scale 0 to 100, 0 no effect, 100 complete control, read-out: Plant response rating, Nutsedge, Yellow)?
Answer: 20%

Question: And the plant injury at 16 g/ha ([11]; 16 g ai/ha, preemergence, scale 0 to 100 (0 no effect, 100 complete control), read-out: Soybean plant response rating)?
Answer: 40%

Question: What about the plant injury at 125 g/ha ([11]; 125 g ai/ha, preemergence, scale 0 (no effect) to 100 (complete control), read-out: Soybean plant response rating) of the same compound?
Answer: 98%

Question: What about the plant injury at 62 g/ha ([11]; Preemergence, 62 g ai/ha, scale 0 to 100, 0 no effect, 100 complete control, read-out: Plant response rating, Soybean) of the same compound?
Answer: 95%

Question: What about the “Plant response rating, Galium” value ([12]; 31 g ai/ha) of the same compound?
Answer: 60

Question: What about the “Plant response rating, Galium” value ([12]; 125 g ai/ha) of the same compound?
Answer: 100

Question: And the pest or weed control at 16 g/ha ([13]; 16 g ai/ha, preemergence, scale 0 to 100 (0 no effect, 100 complete control), read-out: Waterhemp plant response rating)?
Answer: 100%

Question: And the pest or weed control at 125 g/ha ([13]; 125 g ai/ha, preemergence, scale 0 (no effect) to 100 (complete control), read-out: Waterhemp plant response rating)?
Answer: 100%

Question: And the pest or weed control at 62 g/ha ([13]; Preemergence, 62 g ai/ha, scale 0 to 100, 0 no effect, 100 complete control, read-out: Plant response rating, Waterhemp)?
Answer: 100%

Question: What about the pest or weed control at 16 g/ha ([14]; 16 g ai/ha, preemergence, scale 0 to 100 (0 no effect, 100 complete control), read-out: Barnyardgrass plant response rating) of the same compound?
Answer: 30%

Question: And the pest or weed control at 125 g/ha ([14]; 125 g ai/ha, preemergence, scale 0 (no effect) to 100 (complete control), read-out: Barnyardgrass plant response rating)?
Answer: 100%

Question: What about the pest or weed control at 62 g/ha ([14]; Preemergence, 62 g ai/ha, scale 0 to 100, 0 no effect, 100 complete control, read-out: Plant response rating, Barnyardgrass) of the same compound?
Answer: 100%

Question: What about the “Plant response rating, Ragweed” value ([15]; 31 g ai/ha) of the same compound?
Answer: 20

Question: And the “Plant response rating, Ragweed” value ([15]; 125 g ai/ha)?
Answer: 80

Question: What about the pest or weed control at 16 g/ha ([16]; 16 g ai/ha, preemergence, scale 0 to 100 (0 no effect, 100 complete control), read-out: Johnsongrass plant response rating) of the same compound?
Answer: 15%

Question: And the pest or weed control at 125 g/ha ([16]; 125 g ai/ha, preemergence, scale 0 (no effect) to 100 (complete control), read-out: Johnsongrass plant response rating)?
Answer: 100%

Question: And the pest or weed control at 62 g/ha ([16]; Preemergence, 62 g ai/ha, scale 0 to 100, 0 no effect, 100 complete control, read-out: Plant response rating, Johnsongrass)?
Answer: 60%

Question: What about the pest or weed control at 16 g/ha ([17]; 16 g ai/ha, preemergence, scale 0 to 100 (0 no effect, 100 complete control), read-out: Lambsquarters plant response rating) of the same compound?
Answer: 100%

Question: And the pest or weed control at 125 g/ha ([17]; 125 g ai/ha, preemergence, scale 0 (no effect) to 100 (complete control), read-out: Lambsquarters plant response rating)?
Answer: 100%

Question: And the pest or weed control at 62 g/ha ([17]; Preemergence, 62 g ai/ha, scale 0 to 100, 0 no effect, 100 complete control, read-out: Plant response rating, Lambsquarters)?
Answer: 100%

Question: And the pest or weed control at 16 g/ha ([18]; 16 g ai/ha, preemergence, scale 0 to 100 (0 no effect, 100 complete control), read-out: Ryegrass, Italian plant response rating)?
Answer: 0%

Question: And the pest or weed control at 125 g/ha ([18]; 125 g ai/ha, preemergence, scale 0 (no effect) to 100 (complete control), read-out: Ryegrass, Italian plant response rating)?
Answer: 80%

Question: What about the pest or weed control at 62 g/ha ([18]; Preemergence, 62 g ai/ha, scale 0 to 100, 0 no effect, 100 complete control, read-out: Plant response rating, Ryegrass, Italian) of the same compound?
Answer: 35%

Question: What about the pest or weed control at 16 g/ha ([19]; 16 g ai/ha, preemergence, scale 0 to 100 (0 no effect, 100 complete control), read-out: Blackgrass plant response rating) of the same compound?
Answer: 0%

Question: And the pest or weed control at 125 g/ha ([19]; 125 g ai/ha, preemergence, scale 0 (no effect) to 100 (complete control), read-out: Blackgrass plant response rating)?
Answer: 90%

Question: And the pest or weed control at 62 g/ha ([19]; Preemergence, 62 g ai/ha, scale 0 to 100, 0 no effect, 100 complete control, read-out: Plant response rating, Blackgrass)?
Answer: 90%
